Results on 23 compounds are retold here after patent publication US9670227B2, “Thienopyrimidine derivatives, a process for their preparation and pharmaceutical compositions containing them” (LES LABORATOIRES SERVIER, priority 2013, dated 2017).

Sequence of Mcl-1 protein (Q07820 whole entry): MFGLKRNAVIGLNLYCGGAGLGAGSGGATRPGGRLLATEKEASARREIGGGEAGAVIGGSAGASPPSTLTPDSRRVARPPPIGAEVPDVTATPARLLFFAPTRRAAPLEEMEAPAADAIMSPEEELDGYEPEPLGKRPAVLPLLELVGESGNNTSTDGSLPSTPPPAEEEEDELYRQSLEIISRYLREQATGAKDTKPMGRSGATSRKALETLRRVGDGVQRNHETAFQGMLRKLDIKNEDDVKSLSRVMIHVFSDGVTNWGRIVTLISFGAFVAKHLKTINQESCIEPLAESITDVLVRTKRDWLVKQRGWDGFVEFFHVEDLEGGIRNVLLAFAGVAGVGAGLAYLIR

One experiment addresses Mcl-1 protein (UniProtKB primary accession number: Q07820) (Homo sapiens, UniProt Q07820). Briefly: Inhibition of Mcl-1 by fluorescence polarisation, Method 1. Format: binding. Particulars: fluorescence polarisation test; Method 1, or Method 2 where the value is underlined (underlining not visible); read-out: IC50 (M) Mcl-1 FP. The gist of the method:
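FP competition, 11-point compound titration in 5% final DMSO; protein and labelled probe at 5 nM and 1 nM final in HEPES/NaCl/Tween 20 buffer, pH 7.4.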
For orientation: IC50 means the midpoint of a concentration-inhibition curve. As for `[2H]C([2H])([2H])Oc1ccccc1-c1nccc(COc2ccccc2CC(Oc2ncnc3sc(-c4ccc(F)cc4)c(-c4ccc(OCCN5CCN(C)CC5)c(Cl)c4C)c23)C(=O)OCC)n1` [Example 839, ethyl (2R)-2-{[(5Sa)-5-{3-chloro-2-methyl-4-[2-(4-methylpiperazin-1-yl)ethoxy]phenyl}-6-(4-fluorophenyl)thieno[2,3-d]pyrimidin-4-yl]oxy}-3-{2-[(2-{2-[(^2H3)methyloxy]phenyl}pyrimidin-4-yl)methoxy]phenyl}propanoate], the IC50 came to 6.91e-07 M.
Same read-out and setting: then `CCOC(=O)C(Cc1ccccc1OCc1ccnn1C(C)(C)C)Oc1ncnc2sc(-c3cccc(F)c3F)c(-c3ccc(OCCN(C)C)c(Cl)c3C)c12` [Example 804, ethyl (2R)-3-{2-[(1-tert-butyl-1H-pyrazol-5-yl)methoxy]phenyl}-2-{[(5Sa)-5-{3-chloro-4-[2-(dimethylamino)ethoxy]-2-methylphenyl}-6-(2,3-difluorophenyl)thieno[2,3-d]pyrimidin-4-yl]oxy}propanoate], with 4.68e-05 M; and `CCOC(=O)C(Cc1ccccc1OCc1ccnc(-c2ccccc2OCCOC)n1)Oc1ncnc2sc(-c3ccc(F)cc3)c(-c3ccc(OCCN(C)C)c(Cl)c3C)c12` [Example 806, ethyl (2R)-2-{[(5Sa)-5-{3-chloro-4-[2-(dimethylamino)ethoxy]-2-methylphenyl}-6-(4-fluorophenyl)thieno[2,3-d]pyrimidin-4-yl]oxy}-3-[2-({2-[2-(2-methoxyethoxy)phenyl]pyrimidin-4-yl}methoxy)phenyl]propanoate], with 1.63e-06 M.

Still in this experiment, the particulars now being: fluorescence polarisation test; Method 2 values are underlined in the patent (underlining not visible here); read-out: IC50 (M) Mcl-1 FP.
`COc1ccccc1CC(Oc1ncnc2sc(-c3ccco3)c(-c3ccc(OCCN4CCN(C)CC4)c(Cl)c3C)c12)C(=O)O` [Example 209, (2R)-2-{[(5Sa)-5-{3-chloro-2-methyl-4-[2-(4-methylpiperazin-1-yl)ethoxy]phenyl}-6-(furan-2-yl)thieno[2,3-d]pyrimidin-4-yl]oxy}-3-(2-methoxyphenyl)propanoic acid]: the IC50 came to 9.8e-09 M.
Still for that read-out and setting: then `COc1ccccc1CC(Oc1ncnc2sc(-c3ccco3)c(-c3ccc(OCC4CNCCO4)c(Cl)c3C)c12)C(=O)O` [Example 315, (2R)-2-({(5Sa)-5-[3-chloro-2-methyl-4-(morpholin-2-ylmethoxy)phenyl]-6-(furan-2-yl)thieno[2,3-d]pyrimidin-4-yl}oxy)-3-(2-methoxyphenyl)propanoic acid], with 2.2e-08 M; and `Cc1c(-c2c(-c3ccc(F)cc3)sc3ncnc(OC(Cc4ccccc4OCc4ccnc(-c5ccncc5)n4)C(=O)O)c23)ccc(OCCN2CCN(C)CC2)c1Cl` [Example 34, (2R)-2-{[(5Sa)-5-{3-chloro-2-methyl-4-[2-(4-methylpiperazin-1-yl)ethoxy]phenyl}-6-(4-fluorophenyl)thieno[2,3-d]pyrimidin-4-yl]oxy}-3-(2-{[2-(pyridin-4-yl)pyrimidin-4-yl]methoxy}phenyl)propanoic acid], with 3.3e-09 M; and `Cc1c(-c2c(-c3ccc(F)o3)sc3ncnc(OC(Cc4ccccc4OCc4ccccn4)C(=O)O)c23)ccc(OCCN2CCN(C)CC2)c1Cl` (single isomer, unassigned) [Example 165], with 1.6e-06 M.
The same measure, in the same setting: then `COCCc1nccc(COc2ccccc2CC(Oc2ncnc3sc(-c4ccc(F)cc4)c(-c4ccc(OCCN5CCN(C)CC5)c(Cl)c4C)c23)C(=O)O)n1` [Example 44, (2R)-2-{[(5Sa)-5-{3-chloro-2-methyl-4-[2-(4-methylpiperazin-1-yl)ethoxy]phenyl}-6-(4-fluorophenyl)thieno[2,3-d]pyrimidin-4-yl]oxy}-3-(2-{[2-(2-methoxyethyl)pyrimidin-4-yl]methoxy}phenyl)propanoic acid], with 4.8e-09 M.
On the same count and under the same terms, the value for `COc1ccccc1CC(Oc1ncnc2sc(-c3ccc(F)o3)c(-c3ccc(OCCN4CCN(C)CC4)c(Cl)c3C)c12)C(=O)O` [Example 149, (2R)-2-{[(5Sa)-5-{3-chloro-2-methyl-4-[2-(4-methylpiperazin-1-yl)ethoxy]phenyl}-6-(5-fluorofuran-2-yl)thieno[2,3-d]pyrimidin-4-yl]oxy}-3-(2-methoxyphenyl)propanoic acid] was 1.2e-08 M.
With `COc1ccccc1CC(Oc1ncnc2sc(-c3ccco3)c(-c3ccc(OCCN4CCN(CC(F)(F)F)CC4)c(Cl)c3C)c12)C(=O)O` [Example 327, (2R)-2-{[(5Sa)-5-(3-chloro-2-methyl-4-{2-[4-(2,2,2-trifluoroethyl)piperazin-1-yl]ethoxy}phenyl)-6-(furan-2-yl)thieno[2,3-d]pyrimidin-4-yl]oxy}-3-(2-methoxyphenyl)propanoic acid], the IC50 amounted to 1.5e-08 M.

The experiment is the same for the next values; noted with them: fluorescence polarisation; Method 1, or Method 2; read-out: IC50 (M) Mcl-1 FP.
For `Cc1c(-c2c(-c3ccc(F)cc3)sc3ncnc(OC(Cc4ccccc4OCc4ccnc(-c5ccccc5F)n4)C(=O)O)c23)ccc(OCCN(C)C2CC2)c1Cl` [Example 748, (2R)-2-{[(5Sa)-5-(3-chloro-4-{2-[cyclopropyl(methyl)amino]ethoxy}-2-methylphenyl)-6-(4-fluorophenyl)thieno[2,3-d]pyrimidin-4-yl]oxy}-3-(2-{[2-(2-fluorophenyl)pyrimidin-4-yl]methoxy}phenyl)propanoic acid], the IC50 came out at 1.21e-08 M.
The same measure, in the same setting: then `COc1ccccc1-c1nccc(COc2ccccc2CC(Oc2ncnc3sc(-c4ccc(OCCN5CCOCC5)cc4)c(-c4ccc(OCCN5CCN(C)CC5)c(Cl)c4C)c23)C(=O)O)n1` (single isomer, unassigned) [Example 763], with 9.05e-08 M; and `C=C(C)c1sc2ncnc(O[C@H](Cc3ccccc3)C(=O)O)c2c1-c1cccc(Cl)c1C` (single isomer, unassigned) [Example 719], with 2.7e-06 M.
With `CCc1sc2ncnc(OC(Cc3ccccc3)C(=O)O)c2c1-c1cc(Br)c(O)c(Cl)c1C` [Example 427, (2R)-2-{[(5Sa)-5-(5-bromo-3-chloro-4-hydroxy-2-methylphenyl)-6-ethylthieno[2,3-d]pyrimidin-4-yl]oxy}-3-phenylpropanoic acid], the IC50 came to 4.7e-09 M.
Still for that read-out and setting: then `CC#Cc1sc2ncnc(O[C@H](Cc3ccccc3OCc3ccnc(-c4ccccc4OC)n3)C(=O)O)c2c1-c1ccc(OCCN2CCN(C)CC2)c(Cl)c1C` [Example 482, (2R)-2-{[(5Sa)-5-{3-chloro-2-methyl-4-[2-(4-methylpiperazin-1-yl)ethoxy]phenyl}-6-(prop-1-yn-1-yl)thieno[2,3-d]pyrimidin-4-yl]oxy}-3-(2-{[2-(2-methoxyphenyl)pyrimidin-4-yl]methoxy}phenyl)propanoic acid], with 7.4e-09 M; and `CCc1sc2ncnc(OC(Cc3ccccc3OCC(F)(F)F)C(=O)O)c2c1-c1ccc(OCCN2CCN(C)CC2)c(Cl)c1C` [Example 454, (2R)-2-[((5Sa)-5-{3-chloro-2-methyl-4-[2-(4-methylpiperazin-1-yl)ethoxy]phenyl}-6-ethylthieno[2,3-d]pyrimidin-4-yl)oxy]-3-[2-(2,2,2-trifluoroethoxy)phenyl]propanoic acid], with 1.2e-08 M.
Same read-out and setting: then `CCc1sc2ncnc(O[C@@H](Cc3ccccc3OC)C(=O)O)c2c1-c1ccc(O)c(Cl)c1C` (single isomer, unassigned) [Example 679], with 8.9e-07 M.
The same measure, in the same setting: then `CCc1sc2ncnc(OC(Cc3ccccc3)C(=O)O)c2c1-c1ccc(O)cc1C` [Example 447, (2R)-2-{[6-ethyl-(5Sa)-5-(4-hydroxy-2-methylphenyl)thieno[2,3-d]pyrimidin-4-yl]oxy}-3-phenylpropanoic acid], with 6.8e-08 M; and `CCc1sc2ncnc(OC(Cc3ccccc3)C(=O)O)c2c1-c1cc(Cl)c(O)cc1C` [Example 438, (2R)-2-{[(5Sa)-5-(5-chloro-4-hydroxy-2-methylphenyl)-6-ethylthieno[2,3-d]pyrimidin-4-yl]oxy}-3-phenylpropanoic acid], with 8.5e-08 M.
Take `CCc1sc2ncnc(OC(Cc3ccccc3)C(=O)O)c2c1-c1ccc(OCCCO)c(Cl)c1C` [Example 405, (2R)-2-({(5Sa)-5-[3-chloro-4-(3-hydroxypropoxy)-2-methylphenyl]-6-ethylthieno[2,3-d]pyrimidin-4-yl}oxy)-3-phenylpropanoic acid]: the IC50 is 7.4e-09 M.
For `CCc1sc2ncnc(OC(Cc3ccccc3)C(=O)O)c2c1-c1ccc(OCc2ccccc2)c(Cl)c1C` [Example 394, (2R)-2-({(5Sa)-5-[4-(benzyloxy)-3-chloro-2-methylphenyl]-6-ethylthieno[2,3-d]pyrimidin-4-yl}oxy)-3-phenylpropanoic acid], the IC50 was found to be 3.4e-08 M.

The same experiment, now with this note: partial inhibitors; @ 10 uM test compound.
With `CCOC(=O)[C@@H](Cc1ccccc1OC[C@H]1CCCO1)Oc1ncnc2sc(-c3ccc(F)cc3)c(-c3ccc(OCCN4CCN(C)CC4)c(Cl)c3C)c12` [Example 628, ethyl (2R)-2-{[(5Sa)-5-{3-chloro-2-methyl-4-[2-(4-methylpiperazin-1-yl)ethoxy]phenyl}-6-(4-fluorophenyl)thieno[2,3-d]pyrimidin-4-yl]oxy}-3-{2-[(2R)-tetrahydrofuran-2-ylmethoxy]phenyl}propanoate], the “percentage fluorescence polarisation inhibition, Mcl-1 FP” value was 33.2% @ 10 uM.

The experiment is the same for the next values; noted with them: test compound at 10 uM; Method 1, or Method 2 where the value is underlined (underlining not visible).
With `COc1ccccc1-c1nccc(COc2ccccc2C[C@@H](Oc2ncnc3sc(-c4ccc(F)cc4)c(-c4ccc(OC)c(Cl)c4C)c23)C(=O)OCOC(=O)C(C)(C)C)n1` [Example 849, {[(2R)-2-{[(5Sa)-5-(3-chloro-4-methoxy-2-methylphenyl)-6-(4-fluorophenyl)thieno[2,3-d]pyrimidin-4-yl]oxy}-3-(2-{[2-(2-methoxyphenyl)pyrimidin-4-yl]methoxy}phenyl)propanoyl]oxy}methyl 2,2-dimethylpropanoate], the “percentage fluorescence polarisation inhibition (Mcl-1 FP), partial inhibitors” value is reported as 61.35% @ 10 uM.
